Results: US20030203857A1, “Remedies” (priority 2000, published 2003)
Several values for one entry are separate records, joined by “and”; a condition that tells them apart may be missing. Equal entries are not always repeated.

Assays:
[1] = tested on: HGF production in MRC-5 cells; experiment: Enhancing activity for HGF production, MRC-5 cells, HGF ELISA of medium; type: cell-based, Human; details: 24 hours, control = 100%
Description: MRC-5 cells (CCL 171: manufactured by DAINIPPON PHARMACEUTICAL CO., LTD., code. 02-021) were suspended in a DME medium containing 10% fetal bovine serum so as to have a concentration of 5×10^4 cells/cm^2. The suspension was put in a 48-well cell culture plate, and the cells were cultured at 37° C. in the presence of 5% CO2 gas for 24 hours. After culturing, the medium was exchanged. Thereafter, the sample was added, and the cells were cultured for another 24 hours. Subsequently, the medium was collected, and the amount of HGF in the medium was assayed using Quantikine Human Hepatocyte Growth Factor (HGF) ELISA Kit (manufactured by Funakoshi, code. RS-0641-00). […] Here, the addition of the sample was carried out by previously preparing aqueous solutions of the samples at various concentrations, and adding a given amount of each solution to the medium so as to have the above-mentioned final concentration. As the control, that with addition of a given amount of distilled water alone (final concentration of the sample: 0 μM) was used. The amount of HGF production was expressed as the relative value (%) when the HGF concentration in the cell culture medium of the control was defined as 100%. All experiments were carried out twice, and an average value was taken.

[2] = tested on: NGF production in L-M cells; experiment: Enhancing activity for NGF production, L-M cells, NGF enzyme immunoassay of medium; type: cell-based, murine; details: control = 100%
Description: L-M cells (ATCC CCL-1.2) from murine fibroblasts were suspended in an M199 medium (manufactured by ICN) containing 0.5% bactopeptone (manufactured by Gibco BRL) so as to have a concentration of 1.5×10^5 cells/ml. The suspension was put in a 96-well plate in an amount of 0.1 ml each well, and the cells were aseptically cultured. After culturing the cells for 3 days, the medium was removed therefrom, and exchanged with an M199 medium containing 0.5% bovine serum albumin (manufactured by Sigma). […] After the termination of the culture, the NGF concentration in the culture medium was determined by an enzyme immunoassay method (NGF Emax Immuno Assay System, manufactured by Promega). Incidentally, in the case where the final concentration of the iron-treated chlorogenic acid was 0 μM, a given amount of an aqueous solution obtained by an iron treatment in the absence of chlorogenic acid was added to the medium. In addition, for the purpose of comparison, the activity of the chlorogenic acid without the iron treatment was assayed in the same manner. As described above, that with addition of a given amount of distilled water alone (final concentration of chlorogenic acid without the iron treatment: 0 μM) was used as the control. The amount of NGF production was expressed as the relative value (%) when the NGF concentration in the cell culture medium of the control was defined as 100%. The experiment was carried out twice, and an average value was taken. The enhancing activity for NGF production of chlorogenic acid was enhanced by the iron treatment.

[3] = tested on: mouse; type: in vivo; details: orally, single dose of 1 g/1 kg

| Compound | Amount of HGF Production ([1]; 1 μM) [%] | Amount of HGF Production ([1]; 10 μM) [%] | Amount of HGF Production ([1]; 100 μM) [%] | Death after single oral administration [3] | further results |
| --- | --- | --- | --- | --- | --- |
| 3,5-dicaffeoylquinic acid | 142 | 206 | 290 | – | – |
| CCOC(=O)/C=C/c1ccc(O)c(O)c1 [Caffeic Acid Ethyl Ester, caffeic acid ethyl ester] | – | – | – | – | Amount of NGF Production ([2]; 0.0625 mg/ml): 1279.1% |
| COC(=O)/C=C/c1ccc(O)c(O)c1 [Caffeic Acid Methyl Ester, caffeic acid methyl ester] | – | – | – | – | Amount of NGF Production ([2]; 0.0625 mg/ml): 824.4%; Amount of NGF Production ([2]; 0.125 mg/ml): 889.6% |
| O=C(O)/C=C/c1ccc(O)c(O)c1 [caffeic acid] | 85 | 117 | 196 | no cases of death | Amount of HGF Production ([1]; 1000 μM): 92%; Amount of NGF Production ([2]; 62.5 μM, 20 hours): 97.8%; Amount of NGF Production ([2]; 125 μM, 20 hours): 199.5%; Amount of NGF Production ([2]; 250 μM, 20 hours): 221.2% and 227.8%; Amount of NGF Production ([2]; 500 μM, 20 hours): 287.9%; Amount of NGF Production ([2]; 1000 μM, 20 hours): 269.3% |
| O=C(/C=C/c1ccc(O)c(O)c1)O[C@@H]1C[C@](O)(C(=O)O)C[C@@H](O)[C@H]1O [chlorogenic acid] | 105 | 122 | 302 | no cases of death | Amount of HGF Production ([1]; 50 μM (as chlorogenic acid)): 148%; Amount of HGF Production ([1]; 500 μM): 479%; Amount of HGF Production ([1]; 1000 μM): 624%; Amount of NGF Production ([2]; 125 μM, 20 hours): 124.6%; Amount of NGF Production ([2]; 250 μM, 20 hours): 308.5% and 192.8%; Amount of NGF Production ([2]; 500 μM, 20 hours): 351.1% and 382.2% and 328.5% and 231.9%; Amount of NGF Production ([2]; 1000 μM, 20 hours): 256.2% |
| O=C(/C=C/c1ccc(O)c(O)c1)O[C@H]1[C@H](O)C[C@](O)(C(=O)O)C[C@H]1O [cryptochlorogenic acid, 4-caffeoyl-quinic acid] | – | – | – | no cases of death | – |
| O=C(O[C@@H]1Cc2c(O)cc(O)cc2O[C@@H]1c1cc(O)c(O)c(O)c1)c1cc(O)c(O)c(O)c1 [epigallocatechin gallate] | 175 | 160 | – | no cases of death | – |
| O=C(O)c1cc(O)c(O)c(O)c1 [gallic acid] | 112 | 217 | 576 | no cases of death | – |
| O=c1cc(-c2ccc(O)c(O)c2)oc2cc(O)c([C@@H]3O[C@H](CO)[C@@H](O)[C@H](O)[C@H]3O)c(O)c12 [isoorientin] | – | – | – | no cases of death | – |
| COc1cc(O)c(CC=C(C)C)c2c1C(=O)CC(c1ccc(O)cc1)O2 (centres unmarked) [isoxanthohumol] | – | – | – | – | Amount of NGF Production ([2]; 50 μM, 20 hours): 110.7%; Amount of NGF Production ([2]; 100 μM, 20 hours): 121.4%; Amount of NGF Production ([2]; 200 μM, 20 hours): 198.0% |
| O=c1c(O)c(-c2ccc(O)cc2)oc2cc(O)cc(O)c12 [kaemferol] | – | – | – | no cases of death | – |
| O=c1c(O)c(-c2cc(O)c(O)c(O)c2)oc2cc(O)cc(O)c12 [myricetin] | 187 | 543 | 454 | no cases of death | – |
| O=C(/C=C/c1ccc(O)c(O)c1)O[C@@H]1C[C@@](O)(C(=O)O)C[C@@H](O)[C@@H]1O [neochlorogenic acid, 5-caffeoyl-quinic acid] | – | – | – | no cases of death | – |
| O=c1c(O)c(-c2ccc(O)c(O)c2)oc2cc(O)cc(O)c12 [quercetin] | – | 139 | 304 | no cases of death | – |
| COc1cc2c(c(O)c1C(=O)/C=C/c1ccc(O)cc1)CC(O)C(C)(C)O2 (centres unmarked) [xanthohumol B] | – | – | – | no cases of death | – |
| C=C(C)C(O)Cc1c(O)cc(OC)c(C(=O)/C=C/c2ccc(O)cc2)c1O (centres unmarked) [xanthohumol D] | – | – | – | no cases of death | – |
